Reference: patent publication US20140228299A1, “PROPHYLACTIC AND THERAPEUTIC AGENT FOR NEUROLOGICAL DISEASES USING LIPOPROTEINS AND PROPHYLACTIC AND THERAPEUTIC METHOD FOR NEUROLOGICAL DISEASES” (National University Corporation Tokyo Medical and Dental …, priority 2011, published 2014)

Tests used:
[1] = tested on: retinal ganglion cells of GLAST knockout mouse; assay: Intravitreal administration to GLAST knockout mouse (normal-pressure glaucoma model), counting of retinal ganglion cells; assay type: in vivo
Experimental: This example is an experiment to investigate whether the reconstituted lipoprotein containing apolipoprotein E3 (LP) inhibits apoptosis of the […] of a GLAST knockout mouse as a normal-pressure glaucoma model animal. […] The eyeball was removed at the time of six weeks, followed by fixing with paraffin, staining with hematoxylin-eosin, and counting the retinal glia cells on the retina.
Three-week-old GLAST+/− or GLAST−/− mice were anesthetized by intraperitoneal injection of 50 mg/kg of pentobarbital sodium. […]
The eyeball of a six-week-old mouse was removed and fixed overnight at 4° C. using Super Fix (KY-500, Kurabo. Osaka), followed by removing the cornea and the crystalline lens under a stereoscopic microscope. […] Five sections were selected from each of the continuous sections and the number of the cells within the glia cell layer was counted in a range extending from one end of the retinal section to the other end through the optic nerve. More than 2,000 cells were counted on 10 sections of each retina.

retinal ganglion cells = assay: Glutamic acid-induced apoptosis of cultured retinal ganglion cells (Hoechst 33342 or calcein AM/propidium iodide staining); assay type: cell-based, rat
Experimental: The primary culture of the retinal glia cells was carried out using two-day-old Sprague Dawley (SD) baby rats in accordance with a somewhat modified method (Hayashi et al., J. Biol. Chem. 2009) of the method of Barres et al. (Barres, et al., 1988). The isolated retinal glia cells (RGC) were suspended in a base culture medium of a RGC medium (1 mM glutamine, 5 μg/mL insulin, 60 μg/mL N-acetylcysteine, 62 ng/mL progesterone, 16 μg/mL putrescine, 40 ng/mL sodium selenite, 0.1 mg/mL bovine serum albumin, 40 ng/mL triiodothyronine, 0.1 mg/mL transferrin, 1 mM sodium pyruvate, 2% B27 supplement (Invitrogen, Carlsbad, Calif.), 10 μM forskolin (Sigma, St. Louis, Mo.), 50 ng/mL brain-derived neurotrophic factor (BDNF; PeproTech, Rocky Hill, N.J.), 50 ng/mL ciliary neurotrophic factor (CNTF; Peprotech), and 50 ng/mL basic fibroblast growth factor (bFGF; PeproTech). A 96-well plate was coated with poly-d-lysine (Sigma) and laminin (Sigma), and RGC was placed at the rate of 5,000 cells per well for the 96-well place, 5,000 cells per each culture insert for microdish, or 15,000 cells per dish for compartmentalized culture, followed by incubating for at least 10 days before experimentation.
In the figure, Cant represents a non-treated group, Glu represents a group with 300 μM glutamic acid added, and +glial LP represents a group with 300 μM glutamate+glia-cell-derived lipoprotein containing apolipoprotein E added. Glial LP was added in the concentration of 1 μg cholesterol/mL. After treatment, the rate of apoptosis-like cells was computed by observing the aggregation of the nuclei (a: nuclear staining with Hoechst 33342) or the sustained impermeability of esterase activity/membrane (b: calcein AM/Propidium Iodide staining) in 24 hours.
The induction and detection of apoptosis in RGC were performed in the manner as described below. Specifically, RGC was washed twice with Hanks' balanced salt solution (HBSS) containing 2.4 mM CaCl2 and 20 mM HEPES, but not containing magnesium, and incubated at 37° C. for 2 hours in a medium prepared by adding 300 μM glutamate and 10 μM glycine to the above Hanks' balanced salt solution. After treatment with glutamate, RGC was incubated at 37° C. for 22 hours in a RGC culture medium containing no forskolin, BDNF, CNTF and bFGF. In order to detect apoptosis, RGC was stained with 1 μg/mL of Hoechst 33342 (346-07951, Dojindo, Kumamoto, Japan) or 1 μg/mL of calcein-AM/propidium iodide (341-07381, Dojindo). The fluorescence images were observed by Olympus IX71 microscope. The fragmented or aggregated nuclei stained with the above Hoechst reagent were counted as apoptotic nuclei, and round and smooth nuclei were counted as sound nuclei. As the sound nuclei were not stained with propidium iodide, the nuclei stained with propidium iodide were counted as apoptotic nuclei. More than 300 nuclei were counted in each group.
The apoptosis of RGC was measured in the following manner. The RGC subjected to the primary incubated was incubated two times at 37° C. for 15 minutes using Hanks' Balanced Salt Solution (HBSS) containing 2.4 mM CaCl2 and 20 mM 4-(2-hydroxyethyl)-pyperazine-1-ethanesulfonic acid (HEPES) but containing no magnesium and then washed. […], the magnesium was removed from the washing solution. Thereafter, the RGC was treated or not treated with […] (a co-activating agent for the NMDA receptor) in HBSS containing 2.4 mM CaCl2 and 20 mM HEPES (without magnesium) and then incubated at 37° C. for 2 hours. A control (HBSS containing 2.4 mM CaCl2 and 20 mM HEPES (without containing magnesium)) or the RGC treated or not treated with glutamic acid was incubated at 37° C. for 22 hours in the same medium as used for the RGC (without forskolin, brain-derived neurotrophic factor, ciliary neurotrophic factor and basic fibroblast growth factor). […]

[2] = tested on: α2-macroglobulin released from glia cells; assay: α2-macroglobulin released from primary cultured glia cells (immunoblotting of culture supernatant); assay type: cell-based; details: 100 or 1,000 ng/mL; culture supernatant after 24 hours
Experimental: This example was to examine the amount of α2-macroglobulin released from the glia cells. To a culture mixture of the glia cells obtained by the primary culture, human lipoprotein containing apoE (100 or 1,000 ng/mL) was added, followed by collection of a culture supernatant after 24 hours. After the resulting supernatant was subjected to SDS-PAGE, it was detected by the immunoblotting using anti-α2-macroglobulin antibody. As a result, a decrease in the amount of α2-macroglobulin released from the glia cells was observed by the addition of the human lipoprotein containing apoE (FIG. 18).

Substance	RGC existence in Glast+/− and Glast−/− mice ([1]; 1 μl of 1.5 μg protein/mL E-LP into vitreous body, three-week-old injected, six-week-old examined)	effect on the inhibitory effects of α2-macroglobulin on neuroprotection (retinal ganglion cells; 100 nM a2M, E-LP 100-3,000 ng protein/mL, Glu, Hoechst 24 hours)	protection of RGC from Glu-induced neurotoxicity, dose dependence (retinal ganglion cells; RGC incubated with E-LP 15 minutes before Glu)	amount of α2-macroglobulin released from the glia cells [2]	apoptosis of the retinal cells of GLAST knockout mouse ([1]; LP (100 ng protein/mL) into vitreous body at three weeks, eyeball removed at six weeks)	difference in neuroprotective effects between apoE isoforms in RGC treated with glutamic acid (retinal ganglion cells; 100 ng protein/mL, 15 minutes before Glu)	apoptosis of retinal cells induced by glutamic acid (apoptosis-like cells) (retinal ganglion cells; added at 100 ng protein/mL, Hoechst 33342)
E-LP: reconstituted lipoprotein of 1-palmitoyl-2-oleyl-glycerophosphocoline, cholesterol and recombinant human apolipoprotein E, molar ratio 100:10:1 or 100:0:1	recovery	inhibited	protected the RGC in a dose-dependent manner	decrease	–	–	–
LP: reconstituted lipoprotein of POPC, cholesterol and recombinant human apolipoprotein E3	–	–	–	–	inhibited apoptosis	no difference	inhibited the apoptosis
